Measured values as given in the CheMixHub ionic liquid set.

Test: xn = mol fraction of the nth substance listed

CC[n+]1ccn(C)c1.O=S(=O)([N-]S(=O)(=O)C(F)(F)F)C(F)(F)F + CCOC(C)=O
100 kPa
Conditions	viscosity [mPa·s]
303.15 K, x2 = 0.2977	12.85
303.15 K, x2 = 0.3962	9.43
303.15 K, x2 = 0.5961	4.75
303.15 K, x2 = 0.7974	1.97
303.15 K, x2 = 0.8979	0.88
308.15 K, x2 = 0	23.29
308.15 K, x2 = 0.2977	11.24
313.15 K, x2 = 0.3962	7.36
313.15 K, x2 = 0.5051	5.15
318.15 K, x2 = 0.1858	11.49
318.15 K, x2 = 0.3962	6.49
318.15 K, x2 = 0.5051	4.36
318.15 K, x2 = 0.8979	0.73
323.15 K, x2 = 0.6909	2.05

CC[n+]1ccn(C)c1.O=S(=O)([N-]S(=O)(=O)C(F)(F)F)C(F)(F)F + CCOS(=O)(=O)[O-].CC[n+]1ccn(C)c1
298.15 K, 100 kPa
Conditions	viscosity [mPa·s]
x1 = 0.1042	95.6
x1 = 0.2975	84.1

CC[n+]1ccccc1.[Cl-] + CC[n+]1ccccc1.[Br-]
101 kPa
Conditions	viscosity [mPa·s]
418.1 K, x1 = 0.196	9.57
418.1 K, x1 = 0.613	9.2
423.1 K, x1 = 0.196	8.73
423.1 K, x1 = 0.303	8.64
423.1 K, x1 = 0.613	8.37
423.1 K, x1 = 0.885	8.17
428.1 K, x1 = 0.303	7.88
428.1 K, x1 = 0.688	7.61
433.1 K, x1 = 0.503	7.14
438.1 K, x1 = 0.613	6.53
